Measured values published in patent US11098040B2, “Compounds and methods of use” (Ferro Therapeutics, Inc., priority 2018, dated 2021).
Like-named read-outs stand apart in the source and are kept apart here.

How the values were obtained:
[1] = Whole blood stability, human; format: in vitro ADME
Description: (§1) The results of the assay on stability in blood and IC50 values for pancreatic cancer cell line KP4 are given below in Table 24.

[2] = Whole blood stability, mouse; format: in vitro ADME
Description: as §1

[3] = system: KP4; assay: Cell viability assay (CellTiter Glo), pancreatic ductal adenocarcinoma KP4; format: cell-based, human; conditions: pancreatic cancer cell line KP4, 96 hours, CellTiter Glo, read-out: IC50 μM KP4
Method in brief: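 KP4 cells seeded at 1,000–10,000 per well, treated 96 h with 9-point 3-fold dilutions from 30 μM top (4.6 nM–30 μM, duplicates; ≤0.25% DMSO). Viability by CellTiter Glo luminescence; % inhibition relative to DMSO-only wells, giving IC50, relative IC50 or % top inhibition.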

Molecule | Whole Blood Stability % Remaining at 37° C. Human ([1]; 0 min) [%] | Whole Blood Stability % Remaining at 37° C. Human ([1]; 30 min) [%] | Whole Blood Stability % Remaining at 37° C. Human ([1]; 60 min) [%] | Whole Blood Stability % Remaining at 37° C. Mouse ([2]; 0 min) [%] | Whole Blood Stability % Remaining at 37° C. Mouse ([2]; 30 min) [%] | Whole Blood Stability % Remaining at 37° C. Mouse ([2]; 60 min) [%] | IC50 ([3]; Homo sapiens, KP-4, 96 h) [µM] | IC50 [3] [µM]
CN(C)C(=O)c1ccc([C@@H]2c3sc4ccccc4c3C[C@H](C(=O)N(C)C)N2C(=O)CCl)cc1 [Compound 55a] | 100.0 | 42.6 | 16.7 | 100.0 | 82.3 | 60.4 | 0.5 to 1 | 
COC(=O)[C@H]1Cc2c([nH]c3ccccc23)[C@H](c2ccc(C(=O)OC[C@]34C[C@H]5C[C@H](C[C@H](C5)C3)C4)cc2)N1C(=O)CCl [Compound 6] | 100.0 | 54.8 | 33.0 | 100.0 | 12.4 | 4.7 | 0.01 to 0.1 | 
CN(C)C(=O)[C@H]1Cc2c([nH]c3ccccc23)[C@H](c2ccc(S(=O)(=O)C(C)(C)C)cc2)N1C(=O)CCl [Compound 68] | 100.0 | 36.8 | 20.6 | 100.0 | 65.0 | 36.9 | 0.01 to 0.1 | 
CN(C)C(=O)[C@H]1Cc2c([nH]c3ccccc23)[C@H](c2ccc(C(=O)OC(C)(C)C)cc2)N1C(=O)CCl [Compound 21] | 100.0 | 49.7 | 24.3 | 100.0 | 14.0 | 3.2 | 0.01 to 0.1 | 
CN(C)C(=O)c1ccc([C@H]2c3[nH]c4ccccc4c3C[C@H](C(N)=O)N2C(=O)CCl)cc1 [Compound 58] | 100.0 | 64.4 | 40.5 | 100.0 | 89.9 | 67.0 | > 1 | 
COC(=O)c1ccc([C@H]2c3c(c4ccccc4n3C)C[C@H](C(=O)OC)N2C(=O)CCl)cc1 [Compound 72] | 100.0 | 28.0 | 7.0 | 100.0 | 0.0 | 0.2 | 0.01 to 0.1 | 
COC(=O)c1ccc([C@H]2c3[nH]c4c(Br)cccc4c3C[C@H](C(=O)OC)N2C(=O)CCl)cc1 [Compound 97] | 100.0 | 69.6 | 44.1 | 100.0 | 0.0 | 0.0 | < 0.01 | 
O=C(O)c1ccc([C@H]2c3[nH]c4ccccc4c3C[C@H](C(=O)O)N2C(=O)CCl)cc1 [Compound 5] | 100.0 | 106.3 | 82.0 | 100.0 | 86.3 | 67.9 | > 1 | 
CC(C)(C)OC(=O)c1ccc([C@@H]2c3[nH]c4ccccc4c3C[C@H](CO)N2C(=O)CCl)cc1 [Example 64a] | 100.0 | 38.0 | 15.5 | 100.0 | 8.3 | 3.2 | > 1 | 
COC(=O)[C@H]1Cc2c([nH]c3ccccc23)[C@H](C23CC(C(=O)OC)(C2)C3)N1C(=O)CCl [Compound 62] | 100.0 | 82.4 | 43.5 | 100.0 | 0.0 | 0.0 | 0.01 to 0.1 | 
COC(=O)[C@H]1Cc2c([nH]c3ccccc23)[C@H](c2ccc(C(=O)OC(C)(C)C)cc2)N1C(=O)C(C)Cl (stereo partly shown) [Compound 33] | 100.0 | 104.7 | 103.8 | 100.0 | 78.9 | 69.3 | > 1 | 
(1S,3R)-RSL3-alkyne [Compound BX, reference compound] | 100.0 | 70.1 | 51.1 | 100.0 | 0.0 | 0.0 |  | < 0.01
CN(C)C(=O)[C@H]1Cc2c([nH]c3ccccc23)[C@H](c2ccc(C(=O)N(CCC(=O)OC(C)(C)C)C(C)(C)C)cc2)N1C(=O)CCl [Compound 54] | 100.0 | 44.9 | 40.4 | 100.0 | 42.9 | 13.8 | 0.01 to 0.1 | 
